Source: the NIST ThermoML archive (doi:10.1021/je600562n)
“And” between values parts separate entries of the source, which are not always exact repeats. Equal entries are not always repeated. ± gives the expanded uncertainty stated by the source.

Conditions: Liquid; for mass density: Vibrating tube method; for viscosity: Vibrating wire viscometry

CC(C)CCCCCCCOC(=O)c1ccccc1C(=O)OCCCCCCCC(C)C
Conditions | mass density | viscosity
298.15 K, 101.33 kPa | 963.81 ± 0.97 kg/m3 [middle of 7 runs] | 87.2 ± 1.9 mPa·s and 87.5 ± 2 mPa·s and 87.3 ± 2 mPa·s
298.15 K, 5000 kPa | 962.8 ± 2.9 kg/m3 | –
298.15 K, 10000 kPa | 965.6 ± 2.9 kg/m3 | 107.3 ± 2.5 mPa·s
298.15 K, 20000 kPa | 970.8 ± 2.9 kg/m3 | –
298.15 K, 30000 kPa | 976 ± 2.9 kg/m3 | –
298.15 K, 50000 kPa | 985.5 ± 3 kg/m3 | –
298.15 K, 70000 kPa | 995.2 ± 3 kg/m3 | –
303.15 K, 101.33 kPa | – | 64.6 ± 1.3 mPa·s
303.15 K, 10000 kPa | – | 78.5 ± 1.9 mPa·s
303.15 K, 20000 kPa | – | 98 ± 2.5 mPa·s
303.15 K, 30000 kPa | – | 120.9 ± 3.2 mPa·s
308.15 K, 101.33 kPa | – | 48.99 ± 1 mPa·s
308.15 K, 10000 kPa | – | 60.3 ± 1.3 mPa·s
308.15 K, 20000 kPa | – | 73.1 ± 1.7 mPa·s
308.15 K, 30000 kPa | – | 89 ± 2.2 mPa·s
308.15 K, 50000 kPa | – | 135.4 ± 3.6 mPa·s
313.15 K, 101.33 kPa | – | 37.74 ± 0.77 mPa·s
313.15 K, 10000 kPa | – | 46.5 ± 1 mPa·s
313.15 K, 20000 kPa | – | 57 ± 1.3 mPa·s
313.15 K, 30000 kPa | – | 68.1 ± 1.6 mPa·s
313.15 K, 50000 kPa | – | 100.1 ± 2.5 mPa·s
323.15 K, 101.33 kPa | 945.64 ± 0.95 kg/m3 [middle of 7 runs] | 23.85 ± 0.49 mPa·s and 23.84 ± 0.5 mPa·s
323.15 K, 5000 kPa | 945.4 ± 2.9 kg/m3 | –
323.15 K, 10000 kPa | 948.5 ± 2.9 kg/m3 | 29.24 ± 0.6 mPa·s
323.15 K, 20000 kPa | 954.6 ± 2.9 kg/m3 | 35.63 ± 0.8 mPa·s
323.15 K, 30000 kPa | 960.4 ± 2.9 kg/m3 | 42.46 ± 0.94 mPa·s
323.15 K, 50000 kPa | 970.7 ± 2.9 kg/m3 | 60.4 ± 1.3 mPa·s
323.15 K, 70000 kPa | 980.1 ± 3 kg/m3 | 80.6 ± 1.8 mPa·s
348.15 K, 101.33 kPa | 927.68 ± 0.94 kg/m3 [middle of 7 runs] | 9.71 ± 0.19 mPa·s and 9.72 ± 0.19 mPa·s and 9.71 ± 0.2 mPa·s
348.15 K, 5000 kPa | 927.9 ± 2.8 kg/m3 | –
348.15 K, 10000 kPa | 931.3 ± 2.8 kg/m3 | 11.55 ± 0.25 mPa·s
348.15 K, 20000 kPa | 938 ± 2.8 kg/m3 | 13.81 ± 0.3 mPa·s
348.15 K, 30000 kPa | 944.1 ± 2.8 kg/m3 | 15.93 ± 0.34 mPa·s
348.15 K, 50000 kPa | 955.3 ± 2.9 kg/m3 | 21.5 ± 0.5 mPa·s
348.15 K, 70000 kPa | 965.7 ± 2.9 kg/m3 | 28.86 ± 0.76 mPa·s
363.15 K, 101.33 kPa | 917.07 ± 0.92 kg/m3 [middle of 6 runs] | 6.39 ± 0.13 mPa·s
373.15 K, 101.33 kPa | 907 ± 2.7 kg/m3 | 5.03 ± 0.1 mPa·s
373.15 K, 5000 kPa | 911.1 ± 2.8 kg/m3 | –
373.15 K, 10000 kPa | 914.8 ± 2.8 kg/m3 | 5.92 ± 0.12 mPa·s
373.15 K, 20000 kPa | 922.1 ± 2.8 kg/m3 | 6.96 ± 0.15 mPa·s
373.15 K, 30000 kPa | 929 ± 2.8 kg/m3 | 7.84 ± 0.17 mPa·s
373.15 K, 50000 kPa | 941 ± 2.8 kg/m3 | 10.33 ± 0.22 mPa·s
373.15 K, 70000 kPa | 952.1 ± 2.9 kg/m3 | 13.45 ± 0.32 mPa·s
398.15 K, 101.33 kPa | – | 3.043 ± 0.063 mPa·s
398.15 K, 5000 kPa | 893.4 ± 2.7 kg/m3 | –
398.15 K, 10000 kPa | 898.8 ± 2.7 kg/m3 | 3.601 ± 0.074 mPa·s
398.15 K, 20000 kPa | 906.6 ± 2.7 kg/m3 | 4.12 ± 0.09 mPa·s
398.15 K, 30000 kPa | 913.5 ± 2.8 kg/m3 | 4.741 ± 0.1 mPa·s
398.15 K, 50000 kPa | 926 ± 2.8 kg/m3 | 5.98 ± 0.13 mPa·s
398.15 K, 70000 kPa | 938.9 ± 2.8 kg/m3 | 7.64 ± 0.17 mPa·s
423.15 K, 101.33 kPa | – | 2.052 ± 0.042 mPa·s
423.15 K, 5000 kPa | 877.5 ± 2.7 kg/m3 | –
423.15 K, 10000 kPa | 881.6 ± 2.7 kg/m3 | 2.401 ± 0.052 mPa·s
423.15 K, 20000 kPa | 890.4 ± 2.7 kg/m3 | 2.707 ± 0.058 mPa·s
423.15 K, 30000 kPa | 898.6 ± 2.7 kg/m3 | 3.001 ± 0.065 mPa·s
423.15 K, 50000 kPa | 912.6 ± 2.8 kg/m3 | 3.857 ± 0.082 mPa·s
423.15 K, 70000 kPa | 926.7 ± 2.8 kg/m3 | 4.826 ± 0.1 mPa·s
